Patent US6046224A, “12 (S)--hete receptor blockers” (City of Hope, priority 1998, dated 2000)
“And” between values parts separate entries of the source, which are not always exact repeats. Identical values can stand only once. “Also recorded” adds a separate entry of the source. Counter-ions that a name gives are not always drawn. Like-named read-outs stand apart in the source and are kept apart here. Each block holds one compound with its values, some of them ahead of it.

Columns and labels:
[1] = tested on: Human Aortic Endothelial Cells; assay: Monocyte adhesion to human aortic endothelial cells, monocytes treated with 12(S)-HETE; assay type: cell-based; conditions: monocytes with 10^-9 M 12(S)-HETE, 12 minutes
Procedure: Neutrophil binding is not increased. […] See Example 10.
Monocytes were incubated with 10^-9 M 12(S)-HETE for 12 minutes at room temperature (RT) or 37° C. or left untreated at room temperature and assayed for monocytes adhesion. Eight fields were counted for each experiment.

[2] = tested on: Human Aortic Endothelial Cells; assay: Monocyte binding to human aortic endothelial cells, endothelial cells treated; assay type: cell-based
Description: Lipoxygenases (LO) are metabolic enzymes which catalyze the stereospecific oxygenation of polyunsaturated fatty acids to hydroperoxy fatty acids (Hamberg et al., J. Biol. Chem. 242:5329-5335 (1967)). The physiological function of 12-LO, the mammalian enzyme which catalyzes the oxygenation of arachidonic acid to (S)-12-hydroperoxyeicosatetraenoic acid (12-HPETE) and (S)-12-hydroxyeicosatetraenoic acid (12(S)-HETE), is unclear. 12-LO exists as two isoforms which are the products of different genes, leukocyte-type 12-LO and platelet-type 12-LO, which share 65% homology at the amino acid level (Izumi et al., Proc. Natl. Acad. Sci., USA 87:7477-7481 (1990); Funk et al., Proc. Natl. Acad. Sci. USA 87:5638-5642 (1990)). […] 12(S)-HETE has direct mitogenic and hypertrophic effects in vascular cells. […] In addition, glucose-induced monocyte adhesion was abrogated by the inhibition of 12-LO using both phenidone, a non-specific LO inhibitor, and baicalein, a more specific 12-LO inhibitor. The adhesion caused by 12-LO products appears to be monocyte-specific.

[3] = tested on: 12(S)-HETE receptor (CHO-AT1a cells); assay: [3H]12(S)-HETE binding to CHO-AT1a cells; set-up: species or system Chinese hamster; conditions: for blockade/displacement of [3H]12(S)-HETE binding: CHO-AT1a cells, 4° C.
Procedure: Kinetics of [^3 H]12(S)-HETE binding to CHO-AT1a cells. FIGS. 1 and 2 are a competition curves which examine the specificity of [^3 H]12(S)-HETE binding. CHO-AT1a cells were grown to confluence in 24 well tissue culture dishes in HAM's F12 medium containing 10% fetal calf serum. The cells were then rinsed and placed in fresh medium, HAM's F12/HEPES with no other additives (450 µl per well). Serial dilutions of unlabeled 12(S)-HETE or DuP654 were added to the wells. Commercial unlabeled 12(S)-HETE (BioMol Corp.) was dried and reconstituted in ethanol to obtain a stock solution of 5 mM. DuP654 was dissolved in DMSO to get a stock solution of 5 mM. These were then serially diluted and added in a volume of 1 u1 to the wells to obtain the final concentrations indicated. Then [^3 H]12(S)-HETE (10,000 cpm in a volume of 50 µl per well) was added from a stock solution obtained by adding the tracer to the medium. The plates were then incubated at 4° C. with continuous shaking for 2 hr. The cells were then washed 2 times with cold PBS and lysed in 0.3N NaOH (200 u1). Radioactivity in the cell lysates was quantitated in scintillation counter. Affinities and binding constants were obtained using […] computer software (Mlab, Civilized Software Inc., Bethesda, Md.).
Tritrated 12(S)-HETE binding is blocked by unlabeled 12(S)-HETE. DuP654, a 12(S)-HETE receptor antagonist, was shown also to block 12(S)-HETE at a concentration of 0.1 μM in both AT1a Σ and AT1a 27 cell types, two clones of CHO cells which overexpress the AII1a receptor. The cells were grown as described in Example 1.
Blockade of 12(S)-HETE binding by pertussis toxin. Cells were grown as described in Example 1. Prior to addition of drug (12(S)-HETE or DuP654) to the cells, the cultures were preincubated in HAM's F12 medium +0.1% BSA for two hours at 37° C. with or without 100 ng/ml pertussis toxin. Serial dilutions of unlabeled 12(S)-HETE or DuP654 were added, followed by [^3 H]12(S)-HETE as described for Example 1. After incubation and washing, radioactivity in the cell lysates was quantitated. As discussed above, pertussis toxin could also ablate 12(S)-HETE-induced mitogenic effects. This implicates the involvement of a Gi -protein-coupled receptor.

[4] = tested on: 12(S)-HETE receptors on the human epidermal cell line SCL-II; conditions: Arenberger et al. 1993; cited from earlier work
[5] = tested on: CHO-AT1a cells; assay: Growth/mitogenesis of CHO-AT1a cells; assay type: cell-based, Chinese hamster
Procedure: Partial blockade of 12(S)-HETE mitogensis by the specific angiotensin AT1a receptor antagonist, Losartan, in CHO-AT1a cells. (FIG. 5) CHO-AT1a cells were plated in 12-well dishes (about 5-10,000 cells per well) for 24 hr. in growth medium consisting of HAM's, F12+10% FCS. They were then serum depleted for 72 hours by replacing the medium with HAM's F12+0.1% BSA. This medium was then freshly replaced along with AII or 12-HETE (0.1 μM each) prior to addition of drug to the cells. Losartan was added as a solution in water to the cells 15 min. prior to the addition of AII or 12-HETE. Fresh medium containing the same concentrations of AII or 12(S)-HETE plus Losartan was replaced every 48 hours. At the end of 8 days, the medium was removed, and 1 ml trypsin was added per well followed by 1 ml isoton after 3 min. These trypsinized cells were counted on a Coulter counter. […] 12-HETE binding (FIG. 4).
The three cell lines, CHO-AT1a, CHO-AT1b and mock transfected CHO cells were gifts from Dr. Eric Clauser (Inserm Unit, Paris, France). These cells were plated in 12 well dishes in HAM's F12 medium +10% FCS. After 72 hours serum depletion in HAM's F12+0.05% FCS, the cells were treated with AII or 12(S)-HETE (0.1 μM). Cells counts (after trypsinization) were taken at 48 hour intervals and fresh medium along with AII or 12-HETE added at these 48 hour intervals.

[6] = tested on: PAK; assay: PAK activity in CHO-AT1a cells; assay type: cell-based, Chinese hamster; conditions: 10^-7 M 12(S)-HETE, 10 minutes
Procedure: CHO-AT1a cells were gently washed and placed in depletion medium (HAM's F-12 medium containing 1 mg.backslash.ml BSA and 20 mM HEPES, ph 7.4) for 72 hours prior to use. After incubation for 30 minutes, the cells were treated with 10^-7 M 12(S)-HETE or with ethanol. The 12(S)-HETE treatment was terminated by washing twice with PBS and adding 300 μl lysis buffer (50 mM HEPES. pH 7.5, containing 150 mM NaCl, 5 mM MgCl2, 1 mM EGTA, 50 mM NaF, 10 mM sodium pyrophosphate, 1% NP-40, 2.5% glycerol and 1 mM Na3 VO4 containing the protease inhibitors phenylmethylsulfonyl fluoride, leupeptin, and aprotonin) followed by sedimentation at 14,000× g at 4° C. for ten minutes. Protein determination was performed by the Bradford method. […] PAK activity was measured as follows. […] ATP, the kinase activity was measured in 60 μl kinase buffer. […] Results are expressed as stimulation over control.
For the PBD-transfected group, CHO-AT1a cells were transiently transfected with 15 μg PBD plasmid. […] The bottom panel illustrates the densitometric quantification. […] Results are expressed as stimulation over control. The PAK activity was measured as described in Example 7.
Cells were pretreated with different concentrations of the PI-3 kinase inhibitor, LY294002 or DMSO (control) for 30 minutes, then treated with 10^-7 M 12(S)-HETE or ethanol (control) for 10 minutes. PAK activity was measured as described in Example 7.

[7] = tested on: AII-induced proliferation; conditions: cited from earlier work
[8] = tested on: CHO-AT1a cells; conditions: cited from earlier work; for inhibition of 12(S)-HETE-induced mitogenic effects (pertussis toxin): pretreatment of cells
[9] = tested on: c-jun amino terminal kinase (JNK); conditions: cited from earlier work
[10] = tested on: PAK; conditions: cited from earlier work
[11] = tested on: 12-LO; conditions: Scheidegger et al. 1997; cited from earlier work
[12] = tested on: 12-LO; conditions: cited from earlier work
[13] = tested on: CHO-AT1a cells; conditions: cited from earlier work
[14] = HAEC incubated four hours with 12(S)-HETE, 240 min

average increase in monocyte binding as compared to untreated cells [2, 14]: 3 fold
range of increase in monocyte binding as compared to untreated cells [2, 14]: 1.5-5 fold
Compound: CCCCC/C=C\C[C@H](O)/C=C/C=C\C/C=C\CCCC(=O)O [12(S)-HETE, (S)-12-hydroxyeicosatetraenoic acid]
Monocyte Adhesion to Human Aortic Endothelial Cells, 12(S)-HETE (37° C.) ([1]; 37° C., P = 0.01): 39.0 ± 9.3
Monocyte Adhesion to Human Aortic Endothelial Cells, 12(S)-HETE (RT) ([1]; RT, exp. 1 P = 0.016, exp. 2 P = 0.001): 39.6 ± 12.5 and 45.4 ± 7.6

Compound: Oc1c(Cc2ccccc2)ccc2ccccc12 [DuP654, 2-phenylmethyl-1-naphthol]
blockade of 12(S)-HETE binding at 0.1 μM ([3]; 0.1 μM, AT1a Σ and AT1a 27 clones): block
inhibition of 12(S)-HETE binding to SCL-II cells [4]: specifically inhibit
reduction of 12(S)-HETE-induced cell growth at 0.1 μM ([5]; 12(S)-HETE-induced, 0.1 μM): significantly reduced
inhibition of 12(S)-HETE-induced mitogenic effects ([5]; 12(S)-HETE-induced, CHO-AT1a cells): completely inhibit; also recorded: Complete inhibition
reduction of AII-induced cell growth at 0.1 μM ([5]; AII-induced, 0.1 μM): significantly reduced

Compound: O=c1cc(N2CCOCC2)oc2c(-c3ccccc3)cccc12 [LY294002]
inhibition of 12(S)-HETE-induced PAK activation [6]: inhibition

Compound: CCCCc1nc(Cl)c(CO)n1Cc1ccc(-c2ccccc2-c2nn[nH]n2)cc1 [Losartan, 2-N-butyl-4-chloro-5-hydroxymethyl-1-[(2'-(1H-tetrazol-5-yl)biphenyl-4-yl)methyl]imidazole, potassium salt]
blockade/displacement of [3H]12(S)-HETE binding ([3]; potassium salt): partially blocked
inhibition of 12(S)-HETE-induced mitogenic effects ([5]; 12(S)-HETE-induced, CHO-AT1a cells, potassium salt): partially blocked
inhibition of AII-induced proliferative effects ([5]; AII-induced, CHO-AT1a cells, potassium salt): fully inhibiting; also recorded: fully blocked

Compound: O=c1cc(-c2ccccc2)oc2cc(O)c(O)c(O)c12 [baicalein]
inhibition of glucose-induced monocyte adhesion [2]: abrogated
inhibition of proliferative effects of AII [7]: inhibited
inhibition of AII proliferative effects ([8]; AII-induced, CHO-AT1a cells): inhibited

Compound: O=C1CCN(c2ccccc2)N1 [phenidone]
inhibition of glucose-induced monocyte adhesion [2]: abrogated

Compound: AII: growth factor and potent vasoconstrictor AII
JNK activation ([9]; Wen et al. 1997): activate
PAK activation by AII [10]: activate
stimulation of 12-LO activity in murine macrophages [11]: stimulate
stimulation of 12-LO activity in smooth muscle cells [12]: stimulate
mitogenic effects in CHO-AT1a cells ([8]; Wen et al. 1996): sustained increase in DNA synthesis as well as cell number

Compound: AII: growth factor and potent vasoconstrictor AII (DRVYIHPF; Angiotensin-2; UniProt P01019 25-32, looked up)
increase in 12(S)-HETE formation [13]: 2 fold
increase in cell proliferation ([8]; CHO-AT1a cells, 0.1 µM): 2 fold

Compound: pertussis toxin
blockade/displacement of [3H]12(S)-HETE binding [3]: Blockade
blockade/displacement of [3H]12(S)-HETE binding ([3]; listed as Pertussis toxin): blocked
blockade of JNK activation by 12(S)-HETE ([9]; 12(S)-HETE-induced): block
inhibition of 12(S)-HETE-induced mitogenic effects (pertussis toxin) [8]: completely abrogated; also recorded: ablate
inhibition of 12(S)-HETE-induced mitogenic effects (pertussis toxin) ([8]; listed as Pertussis toxin): ablate
